The subject of this experiment is PMA-induced release of HB-EGF from THP-1 cells. Put plainly: ELISA-based HB-EGF release assay, PMA-stimulated THP-1 cells. Particulars: Homo sapiens, murine (m) and chimeric (ch) antibodies 3 μg/ml, Batimastat 10 μM, PMA 25 ng/ml, 6 hours. The experiment is classed as cell-based. As for the experimental part:
In the following study, ELISA-based HB-EGF release assays were performed to analyze the inhibitory effects of the antibodies of the present disclosure on PMA-induced release of endogenous HB-EGF from human THP-1 monocytic cells.
In brief, on day 1, Nunc black MaxiSorp® 96-well plates (Thermo Fisher Scientific, USA) were coated for 7 hours with 100 μl per well of rat anti-human HB-EGF capture antibody (provided as part of the DuoSet ELISA kit) at 2 μg/ml TBS at room temperature. Capture antibody solution was removed and MaxiSorp® plates were blocked with 300 μl per well of TBS, 1% BSA at room temperature for 3 hours. […]
Subsequently, cells (except those for unstimulated controls) were stimulated with 20 μl per well of PMA (Sigma-Aldrich, USA) at 150 ng/ml in growth medium for a final concentration of 25 ng/ml at 37° C., 5% CO2 for 6 hours. […] Using an infinite M1000 (Tecan Group, Switzerland) microplate reader, the fluorescence of each well was collected at an excitation wavelength of 435 nm and an emission wavelength of 555 nm.

The values below come from US20240174744A1, “METHODS OF TREATMENT USING PROTEIN BINDERS TO IRHOM2 EPITOPES” (SCIRHOM GMBH, priority 2021, published 2024).

SMILES strings stand for the structures.

What is called inhibition is the share of the control response that was lost under treatment. For `CNC(=O)[C@H](Cc1ccccc1)NC(=O)[C@H](CC(C)C)[C@H](CSc1cccs1)C(=O)NO` [Batimastat], testing at 10 µM gave an inhibition of 98.9%.
